{
  "source": "patent US4992581A",
  "about": "“Novel methods of manufacturing thromboxane A2 antagonists” (National Research Development Corporation, priority 1988, dated 1991)",
  "key": {"[1]": {"tested_on": "U-46619-induced platelet aggregation (rat platelet rich plasma)", "test": "Inhibition of U-46619-induced platelet aggregation in vitro in rat platelet rich plasma", "type": "cell-based", "details": "rat PRP", "procedure": "Platelet rich plasma (PRP) was prepared from heparanized whole blood (5 units/ml) drawn from the abdominal aorta of ether anesthetized rats. PRP was prepared by centrifugation (Sorvall RC2B, DuPont, Wilmington, Del.) of the whole blood at 150×g for 10 min. Platelet poor plasma (PPP) was prepared by centrifugation at 1200×g for 20 min. Aliquots of PRP and PPP were used to standardize the aggregometer (Payton, Buffalo, N.Y., model 300B) with the recorder (Riken Denshi 2 channel recorder, Payton, model SP-H5P) for measurement of minimum and maximum light transmittance, respectively.\nPlatelet aggregation was measured as an increase in light transmittance. PRP (390 μl aliquot 5 μl compound vehicle) was preincubated for 1 min. at 37° C., with stirring at 900 rpm in the aggregometer. […] Amount of aggregation was measured by grids on the strip chart.\nCompounds were dissolved in either ethanol (ETOH) or Na2 CO3 (0.1 M) and preincubated at the desired concentration in PRP for 1 min. at 37° C. with stirring. […] Dose response curves were generated and IC50 's calculated by linear regression."}, "[2]": {"tested_on": "washed human platelets", "test": "Analysis of partial agonism (human washed platelets)", "type": "cell-based", "details": "5 and 10 min. incubation", "procedure": "Sixty ml of blood were drawn into 1/10 volume of CCD (100 mM Na Citrate and 136 mM glucose, pH 6.5 with HCl) and PRP prepared as described above. PRP was placed on ice for 15 min. One half of the volume of CCD was added and recentrifuged. The platelet pellet was gently resuspended in 1/2 the original volume of PRP in a 0° C. modified Tangen-Hepes-BSA buffer (145 mM NaCl, 5 mM KCl, 0.05 mM CaCl2, 0.1 mM MgCl2, 11 mM glucose, 15 mM Hepes, 1 mg/ml bovine serum albumin, pH adjusted to 7.4 with NaOH). The resuspended platelets were incubated undisturbed at 37° C. for 30 min. After incubation a platelet count was determined and adjusted to 3×10^8 cells/ml with the Tangen-Hepes-BSA buffer.\n425 μl of the washed human platelet suspension was incubated in the aggregometer in the presence of 16 mM CaCl2 (50 μl) and SC-46985 for 5 and 10 min. […] (In a study similar to (a) above, aliquots of human washed platelets were incubated with various concentrations of SC-46985 and U-46619 to determine dose-related inhibition of aggregation)."}},
  "data": [
    {"smiles": "CC(=NNC(=S)Nc1ccccc1)[C@@H]1[C@H]2CC[C@H](C2)[C@H]1C/C=C\\CCCC(=O)O", "note": "(relative stereo) [SC-44161, (±)7-[3α[[(Phenylamino)thioxomethyl]hydrazono]ethyl]1α,4α-bicyclo[2.2.1]hept-2β-yl]-5Z-heptenoic acid]", "values": [
      {"measurement": "fold more potent in aqueous solution than in ethanol", "setting": "[1]; Na Carbonate vs ETOH vehicle", "value": "5-10 fold"},
      {"measurement": "IC50", "setting": "[1]; Rattus norvegicus, Platelet, vehicle ETOH", "value": 260, "unit": "nM"}
    ]},
    {"smiles": "CC(=NNC(=S)Nc1ccccc1)[C@H]1[C@@H]2CC[C@@H](C2)[C@@H]1C/C=C\\CCCC(=O)O", "note": "[SC-46985]", "values": [
      {"measurement": "partial agonist activity", "setting": "[2]", "value": "lack of partial agonist activity"},
      {"measurement": "shape change or aggregation", "setting": "[2]; no U-46619", "value": "no evidence of shape change or aggregation"}
    ]}
  ]
}
